The subject of one data set is Spleen. Kind of data set: Biodistribution in Wistar rat spleen assessed as standard uptake value at 1.7 MBq, iv administered as single dose measured after 10 mins post-injection by gamma counting. As to conditions: in vivo. It counts as ADME, organism-based.
Data set [1] deals with Harderian gland. Kind of data set: Biodistribution in Wistar rat harderian gland assessed as standard uptake value at 1.7 MBq, iv administered as single dose measured after 1 min post-injection by gamma counting. It counts as ADME, organism-based. The settings on record: in vivo.
Data set [2] is described as follows: Biodistribution in Wistar rat thyroid gland at 1.7 MBq, iv administered as single dose measured after 30 mins post-injection by gamma counting. It counts as ADME, organism-based. As to conditions: in vivo, 0.5 h.
Data set [3] relates to Adrenal gland. Kind of data set: Biodistribution in Wistar rat adrenal gland assessed as standard uptake value at 1.7 MBq, iv administered as single dose measured after 30 mins post-injection by gamma counting. It counts as ADME, organism-based. The settings on record: in vivo, 0.5 h.
For data set [4], the system named is Harderian gland. Kind of data set: Biodistribution in Wistar rat harderian gland assessed as standard uptake value at 1.7 MBq, iv administered as single dose measured after 60 mins post-injection by gamma counting. The class given is ADME, organism-based. As to conditions: in vivo, 1 h.
Data set [5] can be described thus: Biodistribution in Wistar rat thyroid gland at 1.7 MBq, iv administered as single dose measured after 10 mins post-injection by gamma counting. The settings on record: in vivo. It counts as ADME, organism-based.
Data set [6] in a line: Biodistribution in Wistar rat thyroid gland assessed as standard uptake value at 1.7 MBq, iv administered as single dose measured after 1 min post-injection by gamma counting. It counts as ADME, organism-based. As to conditions: in vivo.
Data set [7] relates to Adrenal gland. Kind of data set: Biodistribution in Wistar rat adrenal gland at 1.7 MBq, iv administered as single dose measured after 10 mins post-injection by gamma counting. The settings on record: in vivo. It counts as ADME, organism-based.
The subject of data set [8] is Pancreas. Kind of data set: Biodistribution in Wistar rat pancreas assessed as standard uptake value at 1.7 MBq, iv administered as single dose measured after 60 mins post-injection by gamma counting. As to conditions: in vivo, 1 h. The class given is ADME, organism-based.
The nature of data set [9]: Biodistribution in Wistar rat hair/skin assessed as standard uptake value at 1.7 MBq, iv administered as single dose measured after 30 mins post-injection by gamma counting. It counts as ADME, organism-based. The settings on record: in vivo, 0.5 h.
Data set [10] concerns Harderian gland. Kind of data set: Biodistribution in Wistar rat harderian gland at 1.7 MBq, iv administered as single dose measured after 10 mins post-injection by gamma counting. It counts as ADME, organism-based. As to conditions: in vivo.
Data set [11] can be described thus: Biodistribution in Wistar rat thyroid gland assessed as standard uptake value at 1.7 MBq, iv administered as single dose measured after 30 mins post-injection by gamma counting. As to conditions: in vivo, 0.5 h. It counts as ADME, organism-based.
Another data set concerns Muscle tissue. Kind of data set: Biodistribution in Wistar rat muscle assessed as standard uptake value at 1.7 MBq, iv administered as single dose measured after 5 mins post-injection by gamma counting. The settings on record: in vivo. The class given is ADME, organism-based.
Data set [12] has as its system Pancreas. Kind of data set: Biodistribution in Wistar rat pancreas at 1.7 MBq, iv administered as single dose measured after 1 min post-injection by gamma counting. The class given is ADME, organism-based. As to conditions: in vivo.
A short description of data set [13]: Metabolic stability in Wistar rat plasma assessed as compound remaining at 0.5 MBq after 60 mins by radio-HPLC analysis. It counts as ADME, cell-free. The settings on record: read-out: Stability.
The test system of data set [14] is Pancreas. Kind of data set: Biodistribution in Wistar rat pancreas assessed as standard uptake value at 1.7 MBq, iv administered as single dose measured after 10 mins post-injection by gamma counting. As to conditions: in vivo. The class given is ADME, organism-based.
The test system of data set [15] is Harderian gland. Kind of data set: Biodistribution in Wistar rat harderian gland at 1.7 MBq, iv administered as single dose measured after 1 min post-injection by gamma counting. As to conditions: in vivo. It counts as ADME, organism-based.
For another data set, the system named is Intestine. Kind of data set: Biodistribution in Wistar rat intestine at 1.7 MBq, iv administered as single dose measured after 5 mins post-injection by gamma counting. The class given is ADME, organism-based. As to conditions: in vivo.
Data set [16] can be described thus: Metabolic stability in Wistar rat blood assessed as compound remaining at 30 MBq, iv after 3 mins by radio-HPLC analysis. The class given is ADME, organism-based. As to conditions: read-out: Stability.

As for `O=C1Nc2ccccc2/C1=C/c1ccc([18F])cc1`, the SUV with Spleen is reported as 0.52%; in the data set with Harderian gland [1], 1.92%; in the data set with Adrenal gland [3] it was 1.39%; with Harderian gland [4] it was 0.46%; in data set [6], 1.55%; in the data set with Pancreas [8], 0.3%. The SUV in data set [9] came to 0.48%; in data set [11], 0.4%; in the data set with Muscle tissue it was 0.83%; with Pancreas [14], 1.13%. For the same compound, the Drug uptake in data set [2] turned out to be 0.03 %ID; in data set [5], 0.05 %ID; with Adrenal gland [7] it was 0.1 %ID; with Harderian gland [10] it was 0.25 %ID; with Pancreas [12], 0.56 %ID; with Harderian gland [15], 0.29 %ID. In addition, the Drug uptake in the data set with Intestine is recorded as 13.96 %ID. The remaining at 1 h, 0.5 MBq in data set [13] came to 96%. The remaining at 0.05 h in [16] came out at 54%.

The values above are taken from ChEMBL document CHEMBL1152667, “Synthesis and radiopharmacological investigation of 3-[4'-[(18)F]fluorobenzylidene]indolin-2-one as possible tyrosine kinase inhibitor” (Bioorg Med Chem, 2009).
